Patent US9457106B2, “Cancer therapy” (priority 2011, dated 2016)
Where two headings read alike, the source gives them in different places.

Assays:
[1] = cited from earlier work; for Maximum particle energy: beta particles
[2] = for Formation of a precipitate: 1 mL calcium chloride solution (50 mM) added to 10 mL of 100 mM phosphate solution

**Q.** Which Half-life ([1]; beta emitters) does the source give for `[89Sr]` [strontium-89] here?
**A.** 51 days

**Q.** What about the Maximum particle energy [1] of the same compound?
**A.** 1.46 MeV

**Q.** For `[153Sm]` [samarium-153], which Half-life ([1]; beta emitters) is on record?
**A.** 1.96 days

**Q.** And the Maximum particle energy [1]?
**A.** 0.7 (>50%) MeV

**Q.** Which Half-life ([1]; beta emitters) does the source give for `[103Ru]` [ruthenium-103] here?
**A.** 40 days

**Q.** And the Maximum particle energy [1]?
**A.** 0.214 MeV

**Q.** For phosphorus-32, which Half-life ([1]; beta emitters) is on record?
**A.** approximately 14 days

**Q.** And the Maximum particle energy [1]?
**A.** 1.71 MeV

**Q.** For `[131IH]` [iodine-131], which Half-life ([1]; beta emitters) is on record?
**A.** 8.04 days

**Q.** What about the Maximum particle energy [1] of the same compound?
**A.** 0.61 MeV

**Q.** For `O=P([O-])(O)O.[Na+]` [sodium dihydrogen phosphate], which “Formation of a precipitate” value [2] is on record?
**A.** no precipitate was formed

**Q.** What about the “Amount of precipitate formed as a function of sodium hydroxide (0.05 M) added” value ([2]; 50 mL sodium dihydrogen phosphate (100 mM) and 5 mL calcium chloride (50 mM)) of the same compound?
**A.** a precipitate of calcium phosphate begins to form

**Q.** What does the source list for `[125IH]` [iodine-125]?
**A.** Half-life ([1]; electron capture emitters): 60 days; Particle energy ([1]; electron capture emitters): 0.035 MeV

**Q.** Which Half-life ([1]; electron capture emitters) does the source give for `[103Pd]` [palladium-103] here?
**A.** 17 days

**Q.** What about the Particle energy ([1]; electron capture emitters) of the same compound?
**A.** 0.05 MeV

**Q.** With `O=P([O-])([O-])O.[Na+].[Na+]` [disodium hydrogen phosphate] as the compound, how does the “Formation of a precipitate” value [2] read?
**A.** heavy visible precipitate

**Q.** Which Half-life ([1]; beta emitters) does the source give for `[90Y]` [yttrium-90] here?
**A.** 2.68 days

**Q.** And the Maximum particle energy [1]?
**A.** 2.27 MeV
